From article PMC7154053, “Chemical, Metabolic, and Cellular Characterization of a FtsZ Inhibitor Effective Against Burkholderia cenocepacia” (Frontiers in Microbiology, 2020)
In brackets after ≈: the same amount, converted by molar mass. Like-named read-outs stand apart in the source and are kept apart here.

What was measured:
B. cenocepacia J2315 = test: MIC, 2-fold microdilution, resazurin method; format: cell-based, Burkholderia cenocepacia; settings: for MIC: Burkholderia cenocepacia; for activity compared with C109, in words: SAR statements, against both bacteria and the purified enzyme
Description: (§1) Burkholderia cenocepacia strains, Escherichia coli ATCC 25922, Pseudomonas aeruginosa PAO1, and Staphylococcus aureus ATCC 25923 were grown in Luria-Bertani (LB) medium (Difco), if not differently specified, with shaking at 200 rpm, or on LB agar, at 37°C.
(§2) The microtiter plates were incubated at 37°C for 48 (for B. cenocepacia) or 24 h (for all the other strains) and growth was determined by the resazurin method (Martin et al., [2006]). A solution of resazurin sodium salt (Sigma Aldrich) was prepared at 0.01% in distilled water and filter-sterilized. Thirty microliter of resazurin solution were added to each well after 1 or 2 days of incubation at 37°C, and the microtiters were re-incubated at the same temperature for 4 h. The MIC was defined as the lowest concentration of the drug that prevented a change in color from blue to pink, which indicates bacterial growth.
(§3) Three independent biological replicates were used for each MIC determination.

E. coli ATCC 25922 = test: MIC, 2-fold microdilution, resazurin method; format: cell-based; settings: Escherichia coli
Description: as §1, §2, §3

P. aeruginosa PAO1 = test: MIC, 2-fold microdilution, resazurin method; format: cell-based; settings: Pseudomonas aeruginosa
Description: as §1, §2, §3

S. aureus ATCC 25923 = test: MIC, 2-fold microdilution, resazurin method; format: cell-based, Staphylococcus aureus; settings: for MIC: Staphylococcus aureus
Description: as §1, §2, §3

[1] = molecular target: Burkholderia cenocepacia purified FtsZ protein (Burkholderia cenocepacia, UniProt B4E5Y7); test: biochemical; format: biochemical; settings: for Inhibition of Bc FtsZ At 100 μM: 100 μM compound; for Inhibition of Bc FtsZ At 100 μM / Inhibits B. cenocepacia FtsZ GTPase at 100µM?: Yes/No; for Inhibits B. cenocepacia FtsZ GTPase at 100µM?: Supplementary Table 1
Description: All the recombinant FtsZ proteins were expressed at 20°C overnight in E. coli BL21(DE3) cells, upon induction with 0.5 mM IPTG, and purified using the same protocol assessed for the wild-type B. cenocepacia FtsZ (Hogan et al., [2018]).
GTPase enzyme activity was determined using a pyruvate kinase/L-lactic dehydrogenase (PK/LDH) spectrophotometric coupled assay (Ingerman and Nunnari, [2005]). The assays were performed at 30°C, in a reaction mixture containing […] Hepes pH 7.5, 5 mM MgCl2, 5 mM KCl, 10 U PK/LDH, 0.25 mM NADH, 0.25 mM PEP, and 5–10 μM FtsZ, and initiated by the addition of 0.5 mM GTP. Alternatively, GTPase activity was determined by measuring the release of phosphate using the malachite green assay (Baykov et al., [1988]).
(1) A[I]=A[0]×(1-[I]/[I]+IC50)
where A[I] is the enzyme activity at inhibitor concentration [I] and A[0] is the enzyme activity without inhibitor.

B. cenocepacia FCF19 = test: MIC, 2-fold microdilution, resazurin method; format: cell-based, Burkholderia cenocepacia; settings: clinical isolate FCF19
Description: as §1, §2, §3

B. cenocepacia FCF22 = test: MIC, 2-fold microdilution, resazurin method; format: cell-based, Burkholderia cenocepacia; settings: clinical isolate FCF22
Description: as §1, §2, §3

[2] = substrate: COC(=O)CSc1ccc2nsnc2c1[N+](=O)[O-]; test: BcNR nitroreductase steady-state kinetics (NADPH decrease at 340 nm); format: biochemical, Burkholderia cenocepacia; settings: other: compound as substrate of BcNR; pH 8.0; 37.0 °C
Description: (§4) The reaction mixture typically contained 50 mM potassium phosphate pH 8.0, 50 mM KCl, 5–10 μM BcNR, and reactions were started by adding the substrate. Steady-state kinetics parameters were determined by assaying the enzyme at variable concentrations of substrate (10–500 μM). The experiments were performed in triplicate, and the kinetic constants Km and kcat determined by fitting the data to the Michaelis-Menten equation using Origin 8 software.

[3] = substrate: O=C(O)c1ccc([N+](=O)[O-])cc1; test: as above; format: biochemical, Burkholderia cenocepacia; settings: other: compound as substrate of BcNR; pH 8.0; 37.0 °C
Description: as §4

[4] = J2315, LB, 48 h, read-out: MIC B. cenocepacia J2315
[5] = J2315, Supplementary Table 1, read-out: MIC (µg/ml) B. cenocepacia J2315
[6] = ATCC25922, LB, 24 h, read-out: MIC E. coli 25922
[7] = ATCC25922, Supplementary Table 1, read-out: MIC (µg/ml) E. coli 25922
[8] = PAO1, LB, 24 h, read-out: MIC P. aeruginosa PAO1
[9] = PAO1, Supplementary Table 1, read-out: MIC (µg/ml) P. aeruginosa PAO1
[10] = ATCC25923, LB, 24 h, read-out: MIC S. aureus 25923
[11] = ATCC25923, Supplementary Table 1, read-out: MIC (µg/ml) S. aureus 25923

Burkholderia cenocepacia purified FtsZ protein, sequence (B4E5Y7 entry or part of it): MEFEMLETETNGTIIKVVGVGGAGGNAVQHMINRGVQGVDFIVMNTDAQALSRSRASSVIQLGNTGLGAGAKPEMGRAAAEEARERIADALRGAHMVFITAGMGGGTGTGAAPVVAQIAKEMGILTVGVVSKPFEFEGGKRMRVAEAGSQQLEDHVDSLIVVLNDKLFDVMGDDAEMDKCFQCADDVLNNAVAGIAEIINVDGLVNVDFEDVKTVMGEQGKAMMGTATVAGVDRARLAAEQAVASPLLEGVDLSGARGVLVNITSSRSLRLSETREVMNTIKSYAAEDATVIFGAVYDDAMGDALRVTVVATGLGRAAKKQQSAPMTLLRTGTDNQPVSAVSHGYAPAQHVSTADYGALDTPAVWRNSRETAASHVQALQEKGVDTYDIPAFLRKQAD

With N#CSc1cc(SC#N)c2nsnc2c1[N+](=O)[O-] [compound 10626056] the MIC (B. cenocepacia J2315; [4]) was greater than 64 µg/mL, the MIC (B. cenocepacia J2315; [5]) was greater than 64 µg/mL and the MIC (E. coli ATCC 25922; [6]) was greater than 512 µg/mL. The MIC (E. coli ATCC 25922; [7]) was greater than 512 µg/mL, the MIC (P. aeruginosa PAO1; [8]) was greater than 128 µg/mL and the MIC (P. aeruginosa PAO1; [9]) was greater than 128 µg/mL. For the same molecule, the “spectrum of activity, in words” value (S. aureus ATCC 25923; S. aureus vs Gram-negative species) was “showed activity only against S. aureus”, the MIC (S. aureus ATCC 25923; [10]) was 8 µg/mL (≈ 27.1 µM) and the MIC (S. aureus ATCC 25923; [11]) was 8 µg/mL (≈ 27.1 µM). The IC50 [1] was 52 µM, the “Inhibition of Bc FtsZ At 100 μM” value [1] was “Yes” and the “Inhibits B. cenocepacia FtsZ GTPase at 100µM?” value [1] was “Yes”. The melting point was 167 to 169 °C.

With O=[N+]([O-])c1c(N=C=S)ccc2nsnc12 [compound 10026149] the MIC (B. cenocepacia FCF19; Burkholderia cenocepacia) was 64 µg/mL (≈ 269 µM), the “MIC B. cenocepacia FCF19” value (B. cenocepacia FCF19) was “resistance” and the MIC (B. cenocepacia FCF22; Burkholderia cenocepacia) was 256 µg/mL (≈ 1070 µM). The “MIC B. cenocepacia FCF22” value (B. cenocepacia FCF22) was “resistance”, the MIC (B. cenocepacia J2315; J2315, 48 h, read-out: MIC (µg/ml) B. cenocepacia J2315) was 32 µg/mL (≈ 134 µM) and the MIC (B. cenocepacia J2315; J2315, 48 h, read-out: MIC B. cenocepacia J2315) was 32 µg/mL (≈ 134 µM). For the same molecule, the MIC (E. coli ATCC 25922; ATCC25922, 24 h, Supplementary Table 1, read-out: MIC (µg/ml) E. coli 25922) was 16 µg/mL (≈ 67.2 µM), the MIC (E. coli ATCC 25922; [6]) was 16 µg/mL (≈ 67.2 µM) and the MIC (P. aeruginosa PAO1; PAO1, 24 h, Supplementary Table 1, read-out: MIC (µg/ml) P. aeruginosa PAO1) was 16 µg/mL (≈ 67.2 µM). The MIC (P. aeruginosa PAO1; [8]) was 16 µg/mL (≈ 67.2 µM), the MIC (S. aureus ATCC 25923; ATCC25923, 24 h, Supplementary Table 1, read-out: MIC (µg/ml) S. aureus 25923) was 2 µg/mL (≈ 8.39 µM) and the MIC (S. aureus ATCC 25923; [10]) was 2 µg/mL (≈ 8.39 µM). For the same molecule, the “Inhibition of Bc FtsZ At 100 μM” value [1] was “Yes”, the “Inhibits B. cenocepacia FtsZ GTPase at 100µM?” value [1] was “Yes” and the IC50 ([1]; read-out: Inhibition of Bc FtsZ IC50, GTPase activity) was 20 µM. For the same molecule, the melting point was 185 to 187 °C.

With COC(=O)C[S+]([O-])c1ccc2nsnc2c1[N+](=O)[O-] (stereo not drawn) [compound 11726257] the MIC (B. cenocepacia J2315; [4]) was 16 µg/mL (≈ 53.1 µM), the MIC (B. cenocepacia J2315; [5]) was 16 µg/mL (≈ 53.1 µM) and the “activity compared with C109, in words” value (B. cenocepacia J2315) was “activity on B. cenocepacia similar to C109”. The MIC (E. coli ATCC 25922; [6]) was 8 µg/mL (≈ 26.6 µM), the MIC (E. coli ATCC 25922; [7]) was 8 µg/mL (≈ 26.6 µM) and the MIC (P. aeruginosa PAO1; [8]) was 128 µg/mL (≈ 425 µM). The MIC (P. aeruginosa PAO1; [9]) was 128 µg/mL (≈ 425 µM), the MIC (S. aureus ATCC 25923; [10]) was 8 µg/mL (≈ 26.6 µM) and the MIC (S. aureus ATCC 25923; [11]) was 8 µg/mL (≈ 26.6 µM). The IC50 [1] was 3 µM, the “Inhibition of Bc FtsZ At 100 μM” value [1] was “Yes” and the “Inhibits B. cenocepacia FtsZ GTPase at 100µM?” value [1] was “Yes”. It also gave a melting point of 179 to 181 °C.

Molecule CN(C)C(=S)Sc1ccc2nsnc2c1[N+](=O)[O-] [compound 10126130] has an MIC (B. cenocepacia J2315; [4]) greater than 128 µg/mL, an MIC (B. cenocepacia J2315; [5]) greater than 128 µg/mL and an MIC (E. coli ATCC 25922; [6]) of 512 µg/mL (≈ 1700 µM). The MIC (E. coli ATCC 25922; [7]) was 512 µg/mL (≈ 1700 µM), the MIC (P. aeruginosa PAO1; [8]) was greater than 128 µg/mL and the MIC (P. aeruginosa PAO1; [9]) was greater than 128 µg/mL. For the same molecule, the MIC (S. aureus ATCC 25923; [10]) was 32 µg/mL (≈ 107 µM), the MIC (S. aureus ATCC 25923; [11]) was 32 µg/mL (≈ 107 µM) and the IC50 [1] was 10 µM. The “Inhibition of Bc FtsZ At 100 μM” value [1] was “Yes”, the “Inhibits B. cenocepacia FtsZ GTPase at 100µM?” value [1] was “Yes” and the melting point was 137 to 139 °C.

COC(=O)CSc1c(C)cc2nsnc2c1[N+](=O)[O-] [compound 11926141] showed an MIC (B. cenocepacia J2315; [4]) greater than 256 µg/mL, an MIC (B. cenocepacia J2315; [5]) greater than 256 µg/mL and an MIC (E. coli ATCC 25922; [6]) greater than 256 µg/mL. The MIC (E. coli ATCC 25922; [7]) was greater than 256 µg/mL, the MIC (P. aeruginosa PAO1; [8]) was greater than 256 µg/mL and the MIC (P. aeruginosa PAO1; [9]) was greater than 256 µg/mL. It also gave an MIC (S. aureus ATCC 25923; [10]) of 32 µg/mL (≈ 107 µM), an MIC (S. aureus ATCC 25923; [11]) of 32 µg/mL (≈ 107 µM) and an IC50 [1] of 100 µM. For the same molecule, the “Inhibition of Bc FtsZ At 100 μM” value [1] was “Yes”, the “Inhibits B. cenocepacia FtsZ GTPase at 100µM?” value [1] was “Yes” and the melting point was 172 to 174 °C.

For COC(=O)CS(=O)(=O)c1ccc2nsnc2c1[N+](=O)[O-] [compound 11826109], the MIC (B. cenocepacia J2315; [4]) was 256 µg/mL (≈ 807 µM), the MIC (B. cenocepacia J2315; [5]) was 256 µg/mL (≈ 807 µM) and the “activity compared with C109, in words” value (B. cenocepacia J2315) was “loss of activity”. For the same molecule, the MIC (E. coli ATCC 25922; [6]) was 128 µg/mL (≈ 403 µM), the MIC (E. coli ATCC 25922; [7]) was 128 µg/mL (≈ 403 µM) and the MIC (P. aeruginosa PAO1; [8]) was greater than 256 µg/mL. The MIC (P. aeruginosa PAO1; [9]) was greater than 256 µg/mL, the MIC (S. aureus ATCC 25923; [10]) was 16 µg/mL (≈ 50.4 µM) and the MIC (S. aureus ATCC 25923; [11]) was 16 µg/mL (≈ 50.4 µM). For the same molecule, the IC50 [1] was 30 µM, the “Inhibition of Bc FtsZ At 100 μM” value [1] was “Yes” and the “Inhibits B. cenocepacia FtsZ GTPase at 100µM?” value [1] was “Yes”. For the same molecule, the melting point was 123 to 125 °C.

B1: B. cenocepacia nitroreductase BCAL0539 (BcNR) (Burkholderia cenocepacia J2315) (protein)
chain: MSVPTASPRVDADAIRSVDTVDAALKSRRAIRAFLPTPVLRDTLEAILEAASRAPSGTNIQPWRVYVATGATRDALAAALTAAYDDPARDEKYVAEYDYYPREWVSPYIDRRRKVGWDLYGLLNIGRDEKARMHAQHARNFRFFDAPVALFFTLDRVMTLGAWLDCGMFLQGVMTAARARGLDTCPQAAFVPFHRIVAEHLDIPANEQLVCGMSLGHADPDAIENRLVTERASVAEFARFFA
For B1, the Km [2] was 80 ± 5 µM, the Vmax [2] was 71.9 µmol/min/mg and the kcat [2] was 165 ± 5.9 s⁻¹. The kcat/Km [2] was 2.064e+06 ± 20100 M⁻¹ s⁻¹, the Km [3] was 200 ± 21 µM and the Vmax [3] was 7.6 µmol/min/mg. For the same molecule, the kcat [3] was 17.5 ± 1.4 s⁻¹ and the kcat/Km [3] was 87500 ± 8100 M⁻¹ s⁻¹.
